Tests used:
VEGF-R2 = target: T1, VEGF-R2 (Rattus norvegicus, UniProt O08775); experiment: VEGF-R2 Screening Assay; type: biochemical; conditions: 33P-γ-ATP incorporation, 10 μM ATP
T1 construct: polyhistidine (N)
Procedure: Then 1 μL of test compound stock in 100% DMSO was added to the wells resulting in a final concentration of 1% DMSO in the reaction with a 100 μL final reaction volume. The CDK1:Cyclin-B protein was then diluted in 50 mM Tris-HCl pH=8.0, 0.1% BSA at a concentration of 1 ng per μL and 30 μL (30 ng enzyme per test well) was added to each well to initiate the reaction. The reaction was incubated for one hour at 30° C. At the end of the 1 h incubation, the reaction was terminated by aspirating the mixture from the plate and washing the wells twice with PBS containing 100 mM EDTA. The histone-H1 biotinylated peptide substrate became immobilized on the Flashplate™ and the incorporation of ^33P-γ-ATP was measured by reading the plate on a scintillation counter. Inhibition of the enzymatic activity of CDK1 was measured by observing a reduced amount of ^33P-γ-ATP incorporated into the immobilized peptide. The VEGF-R kinase assay was carried out using the CDK kinase assay procedure except that the enzyme was replaced with the VEGF-R2 fusion protein containing a polyhistidine tag at the N-terminus followed by amino acids 786-1343 of the rat VEGF-R2 kinase domain (GenBank Accession #U93306).

Aurora-A = target: T2, Aurora-A (Mus musculus, UniProt P97477); experiment: Aurora-A Screening Assay; type: biochemical, murine; conditions: 33P-γ-ATP incorporation, 10 μM ATP
T2 construct: made in house; host or cells: sf9 insect cells
T2 sequence (P97477 1-395): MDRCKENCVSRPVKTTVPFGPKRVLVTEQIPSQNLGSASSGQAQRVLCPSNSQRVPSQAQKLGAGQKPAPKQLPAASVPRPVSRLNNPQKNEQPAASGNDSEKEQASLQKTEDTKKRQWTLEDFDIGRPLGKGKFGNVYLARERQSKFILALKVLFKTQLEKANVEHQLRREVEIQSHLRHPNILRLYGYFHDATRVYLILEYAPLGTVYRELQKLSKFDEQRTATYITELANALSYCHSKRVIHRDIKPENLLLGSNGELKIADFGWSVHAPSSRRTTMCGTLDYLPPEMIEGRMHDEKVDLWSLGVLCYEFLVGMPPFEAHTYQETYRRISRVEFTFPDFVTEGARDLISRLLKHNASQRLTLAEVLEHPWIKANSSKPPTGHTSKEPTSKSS
Procedure: (§1) A kinase reaction mixture was prepared containing 50 mM Tris-HCl pH=8, 10 mM MgCl2, 0.1 mM […], 1 mM DTT, 10 μM ATP, 0.025 μM biotinylated histone-HI peptide substrate and […] per well ^33P-γ-ATP (2000-3000 Ci/mmol). 70 μL of the kinase reaction mixture was dispensed into the well of a streptavidin coated FlashPlate™ (Cat. # SMP103, NEN, Boston, Mass.). Then 1 μL of test compound stock in 100% DMSO was added to the wells resulting in a final concentration of 1% DMSO in the reaction with a 100 μL final reaction volume.
(§2) The CDK1:Cyclin-B protein was then diluted in 50 mM Tris-HCl pH=8.0, 0.1% BSA at a concentration of 1 ng per μL and 30 μL (30 ng enzyme per test well) was added to each well to initiate the reaction. The reaction was incubated for one hour at 30° C. At the end of the 1 h incubation, the reaction was terminated by aspirating the mixture from the plate and washing the wells twice with PBS containing 100 mM EDTA. The histone-H1 biotinylated peptide substrate became immobilized on the Flashplate™ and the incorporation of ^33P-γ-ATP was measured by reading the plate on a scintillation counter. Inhibition of the enzymatic activity of CDK1 was measured by observing a reduced amount of ^33P-γ-ATP incorporated into the immobilized peptide.
The Aurora-A kinase assay was carried out using the CDK kinase assay procedure except that the enzyme was replaced with the full length protein encoding the murine Aurora-A (Accession# GB BC014711) expressed and purified from sf9 insect cells.
(§3) • VEGF-R2, HER2 and (Biotin)[…]-Amide • RET kinases • CDK1 (Biotin)[…]-Amide • Aurora-A kinase Biotin-[…]-Amide

RET = target: T3, RET (Homo sapiens, UniProt P07949); experiment: RET Kinase Screening Assay; type: biochemical; conditions: 33P-γ-ATP incorporation, 10 μM ATP
T3 construct: the RET cytoplasmic domain consisting of the last 492 amino acids of the intracellular domain of the RET tyrosine kinase; histidine tag (N); made in house; host or cells: Hi5 insect cells
T3 sequence (P07949 658-1114 limits assumed): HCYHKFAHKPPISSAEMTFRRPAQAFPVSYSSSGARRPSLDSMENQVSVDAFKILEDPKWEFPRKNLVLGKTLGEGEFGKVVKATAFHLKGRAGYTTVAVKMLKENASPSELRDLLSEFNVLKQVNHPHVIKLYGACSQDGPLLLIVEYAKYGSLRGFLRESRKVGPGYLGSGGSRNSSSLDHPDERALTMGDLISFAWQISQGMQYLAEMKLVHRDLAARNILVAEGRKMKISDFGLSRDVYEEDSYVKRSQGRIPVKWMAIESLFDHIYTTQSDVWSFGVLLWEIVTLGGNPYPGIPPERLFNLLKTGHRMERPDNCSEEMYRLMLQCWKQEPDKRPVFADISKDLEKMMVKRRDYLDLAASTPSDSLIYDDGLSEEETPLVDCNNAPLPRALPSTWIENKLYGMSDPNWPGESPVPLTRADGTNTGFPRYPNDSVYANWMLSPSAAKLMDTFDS

[1] = test system: HeLa cervical adenocarcinoma; experiment: Inhibition of cell proliferation (14C-thymidine incorporation), HeLa; type: cell-based; conditions: Homo sapiens;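 also: HeLa cells in 96-well scintillating plates, compound for 24 h then 24 h more with 14C-thymidine, counting label built into new DNA against DMSO-only control wells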
HCT-116 colon carcinoma = experiment: Inhibition of cell proliferation (14C-thymidine incorporation), HCT-116; type: cell-based; conditions: Homo sapiens, HCT-116, HCT116
Procedure: (§4) The ability of a test compound to inhibit the proliferation of cell growth was determined by measuring incorporation of ^14C-labelled thymidine into newly synthesized DNA within the cells. This method was used on cell lines derived from carcinomas originating from several tissues such as HeLa cervical adenocarcinoma (American Type Culture Collection (ATCC), Virginia, Cat. #CCL-2), A375 malignant melanoma (ATCC CRL-1619), HCT-116 colon carcinoma (CCL-247). In this way the effect of a compound on cell growth of cells with many different phenotypes can be determined. Cells were trypsinized and counted and 3000-8000 cells were added to each well of a 96-well CytoStar tissue culture treated scintillating microplate (Amersham #RPNQ0160) in complete medium in a volume of 100 μL. Cells were incubated for 24 hours in complete medium at 37° C. in an atmosphere containing 5% CO2.
(§5) Next, 1 μL of test compound in 100% DMSO was added to the wells of the plate. DMSO only was added to control wells. Cells were incubated for 24 more hours in complete medium at 37° C. in an atmosphere containing 5% CO2. Methyl ^14C-thymidine 56 mCi/mmol (NEN #NEC568 or Amersham #CFA532) was diluted in complete medium and 0.2 uCi/well was added to each well of the CytoStar plate in a volume of 20 μl. The plate was incubated for 24 hours at 37° C. plus 5% CO2 in drug plus ^14C-thymidine. The contents of the plate discarded into a ^14C radioactive waste container by inverting the plate and the plate was washed twice with 200 μL PBS.
(§6) 200 μL of PBS is added to each well. The top of the plate was sealed with a transparent plate sealer and a white plate backing sealer (Packard #6005199) was applied to the bottom of the plate. The degree of methyl ^14C-thymidine incorporation was quantified on a Packard Top Count.

A375 malignant melanoma = experiment: Inhibition of cell proliferation (14C-thymidine incorporation), A375; type: cell-based, human; conditions: Homo sapiens, A-375
Procedure: as §4, §5, §6

CDK1:Cyclin-B = target: T4, CDK1:Cyclin-B (Homo sapiens, UniProt P06493); experiment: CDK1 Screening Assay; type: biochemical; conditions: 33P-γ-ATP incorporation, 10 μM ATP
T4 construct: purchased New England Biolabs, Beverly, Mass; 6020; host or cells: insect cells
Procedure: as §1, §2
The CDK1 used was isolated from insect cells expressing both the human CDK1 catalytic subunit and its positive regulatory subunit cyclin B (New England Biolabs, Beverly, Mass., Cat. #6020).
as §3

T1 sequence (O08775 786-1343): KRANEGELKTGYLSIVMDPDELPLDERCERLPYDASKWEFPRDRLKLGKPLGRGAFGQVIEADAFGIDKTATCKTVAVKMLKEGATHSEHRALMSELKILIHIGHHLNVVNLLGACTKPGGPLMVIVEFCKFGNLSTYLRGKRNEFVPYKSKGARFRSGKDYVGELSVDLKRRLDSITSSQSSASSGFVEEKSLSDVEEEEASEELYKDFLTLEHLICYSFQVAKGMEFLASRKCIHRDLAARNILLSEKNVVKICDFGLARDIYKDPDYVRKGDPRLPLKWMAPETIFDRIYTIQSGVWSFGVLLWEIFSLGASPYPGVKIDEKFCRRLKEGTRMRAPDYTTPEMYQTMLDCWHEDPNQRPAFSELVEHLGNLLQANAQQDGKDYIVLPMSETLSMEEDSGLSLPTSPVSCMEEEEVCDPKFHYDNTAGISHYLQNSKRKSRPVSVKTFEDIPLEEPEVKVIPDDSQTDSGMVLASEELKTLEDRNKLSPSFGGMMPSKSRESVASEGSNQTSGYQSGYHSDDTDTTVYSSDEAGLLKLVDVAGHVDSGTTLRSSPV
T4 sequence (P06493 whole entry): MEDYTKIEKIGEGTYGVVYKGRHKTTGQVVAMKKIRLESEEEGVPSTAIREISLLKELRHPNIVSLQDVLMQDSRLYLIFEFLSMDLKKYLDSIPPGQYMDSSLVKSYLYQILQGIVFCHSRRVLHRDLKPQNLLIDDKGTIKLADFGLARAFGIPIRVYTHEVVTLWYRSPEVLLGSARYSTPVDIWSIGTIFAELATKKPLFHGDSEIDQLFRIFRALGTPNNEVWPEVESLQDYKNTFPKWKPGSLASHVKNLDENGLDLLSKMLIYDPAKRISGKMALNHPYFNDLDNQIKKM
T4 sequence (P14635 whole entry partner): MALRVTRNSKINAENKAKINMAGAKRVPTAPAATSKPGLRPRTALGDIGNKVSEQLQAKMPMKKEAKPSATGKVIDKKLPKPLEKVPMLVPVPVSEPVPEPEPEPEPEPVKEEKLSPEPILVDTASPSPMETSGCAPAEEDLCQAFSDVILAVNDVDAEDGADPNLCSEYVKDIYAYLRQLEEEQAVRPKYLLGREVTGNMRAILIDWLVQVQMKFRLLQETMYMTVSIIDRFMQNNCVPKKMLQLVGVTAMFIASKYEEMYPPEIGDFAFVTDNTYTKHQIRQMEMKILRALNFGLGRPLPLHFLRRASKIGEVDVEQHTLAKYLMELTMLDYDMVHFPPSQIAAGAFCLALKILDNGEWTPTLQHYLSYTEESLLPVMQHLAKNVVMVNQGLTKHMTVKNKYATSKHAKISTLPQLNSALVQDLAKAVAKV

SMILES	IC50 (VEGF-R2)	IC50 (Aurora-A)	IC50 (RET)	IC50 [1]	IC50 (HCT-116 colon carcinoma)	IC50 (A375 malignant melanoma)	IC50 (CDK1:Cyclin-B)
Cc1cc(CCN2CCCC2)ccc1Nc1nccc(-c2c[nH]c3ncccc23)n1 [Cpd 48]	0.875 µM	0.86 µM	3.52 µM	0.00255 µM	0.00301 µM	0.00255 µM	
Cc1[nH]c2ncccc2c1-c1ccnc(N[C@H]2CC[C@H](N)CC2)n1 [Cpd 57, trans-N-[4-(2-Methyl-1H-pyrrolo[2,3-b]pyridin-3-yl)-pyrimidin-2-yl]-cyclohexane-1,4-diamine]	10 µM	3.98 µM		0.135 µM	0.0732 µM	0.0973 µM	0.283 µM
c1cnc2[nH]cc(-c3ccnc(N[C@@H]4CC5CCC4C5)n3)c2c1 (stereo partly drawn) [Cpd 58, (2R)-Bicyclo[2.2.1]hept-2-yl-[4-(1H-pyrrolo[2,3-b]pyridin-3-yl)-pyrimidin-2-yl]-amine]	1.54 µM	0.566 µM		0.514 µM	0.222 µM	0.277 µM	0.109 µM
c1cnc2[nH]cc(-c3ccnc(N[C@H]4CC5CCC4C5)n3)c2c1 (stereo partly drawn) [Cpd 59, (2S)-Bicyclo[2.2.1]hept-2-yl-[4-(1H-pyrrolo[2,3-b]pyridin-3-yl)-pyrimidin-2-yl]-amine]	0.55 µM	0.437 µM		0.291 µM	0.379 µM	0.251 µM	0.062 µM
c1cnc2[nH]cc(-c3ccnc(NC4CCOCC4)n3)c2c1 [Cpd 60, (Tetrahydropyran-4-yl)-[4-(1H-pyrrolo[2,3-b]pyridin-3-yl)-pyrimidin-2-yl]-amine]	2.46 µM	1.51 µM		0.0411 µM	0.0175 µM	0.0417 µM	0.0373 µM
CN1CCC(Nc2nccc(-c3c[nH]c4ncccc34)n2)CC1 [Cpd 61, (1-Methylpiperidin-4-yl)-[4-(1H-pyrrolo[2,3-b]pyridin-3-yl)-pyrimidin-2-yl]-amine]	10 µM	2.25 µM		0.026 µM	0.0153 µM	0.0214 µM	0.129 µM
NC1CCN(c2nccc(-c3c[nH]c4ncccc34)n2)CC1 [Cpd 62, 1-[4-(1H-pyrrolo[2,3-b]pyridin-3-yl)-pyrimidin-2-yl]-piperidin-4-ylamine]	2.67 µM	0.762 µM		1.08 µM	0.525 µM	0.622 µM	0.5 µM
